Measurements from ChEMBL document CHEMBL5303304, “EUbOPEN Chemogenomics Library - IncuCyte” (2023).

Experiments:
Type in all cases: toxicity, cell-based
Fibroblast = assay: Incucyte cell viability with human fibroblast; settings: 10 µM, compound concentration 10 uM
U2OS = assay: Incucyte cell viability with U2OS; settings: human, 10 µM, compound concentration 10 uM
HEK-293T = assay: Incucyte cell viability with HEK293T; settings: human, 10 µM, compound concentration 10 uM
Further: unitless GR value; below 1 slowed growth and below 0 cell loss.

| Structure (SMILES) | Growth Rate (Fibroblast; 0 h, replicate number 1) | Growth Rate (Fibroblast; 0 h, replicate number 2) | Growth Rate (Fibroblast; 6 h, replicate number 1) | Growth Rate (Fibroblast; 6 h, replicate number 2) | Growth Rate (Fibroblast; 12 h, replicate number 1) | Growth Rate (U2OS; 18 h, replicate number 1) | Growth Rate (U2OS; 18 h, replicate number 2) | Growth Rate (U2OS; 24 h, replicate number 1) | Growth Rate (U2OS; 24 h, replicate number 2) | Growth Rate (HEK-293T; 0 h, replicate number 1) | Growth Rate (HEK-293T; 0 h, replicate number 2) | Growth Rate (HEK-293T; 12 h, replicate number 2) | Growth Rate (HEK-293T; 18 h, replicate number 2) | Growth Rate (HEK-293T; 24 h, replicate number 2) | Growth Rate (U2OS; 0 h, replicate number 2) | Growth Rate (U2OS; 12 h, replicate number 1) | Growth Rate (U2OS; 12 h, replicate number 2) | Growth Rate (HEK-293T; 6 h, replicate number 2) | Growth Rate (U2OS; 6 h, replicate number 1) | Growth Rate (U2OS; 6 h, replicate number 2) | also measured |
| --- | --- | --- | --- | --- | --- | --- | --- | --- | --- | --- | --- | --- | --- | --- | --- | --- | --- | --- | --- | --- | --- |
| NC(=O)c1cc(-c2ccnc(NC3CCCCC3)c2)nc(N2CCNCC2)c1 | -0.81 | 0.79 | 0.63 | -0.77 | -1 | 0.84 | 0.9 | 0.61 | 0.72 | -0.55 | -0.65 | 0.31 | 0.26 | 0.44 | – | – | – | – | – | – | Growth Rate (Fibroblast; 12 h, replicate number 2): 0.39; Growth Rate (Fibroblast; 18 h, replicate number 2): 0.65; Growth Rate (Fibroblast; 24 h, replicate number 2): 0.36; Growth Rate (HEK-293T; 12 h, replicate number 1): 0.54; Growth Rate (HEK-293T; 18 h, replicate number 1): 0.8 |
| O=C1NCCSc2c1sc1ccc(O)cc21 | – | – | -0.69 | – | -1 | 0.33 | 0.31 | 0.37 | 0.18 | 0.04 | -0.36 | -0.26 | -0.06 | 0.12 | -0.99 | 0.56 | 0.36 | -0.51 | – | – | Growth Rate (U2OS; 0 h, replicate number 1): 0; Growth Rate (HEK-293T; 6 h, replicate number 1): -0.48; Growth Rate (HEK-293T; 12 h, replicate number 1): -0.4; Growth Rate (HEK-293T; 18 h, replicate number 1): -0.14; Growth Rate (HEK-293T; 24 h, replicate number 1): 0.15 |
| NC(=O)c1ccc2[nH]c(-c3ccc(Oc4ccc(Cl)cc4)cc3)nc2c1 | 0.02 | -0.68 | -0.26 | – | -1 | 0.72 | 0.83 | 0.75 | 0.82 | 0.58 | – | 0.93 | – | 0.98 | -0.59 | 0.47 | 0.71 | 0.12 | -0.28 | 0.74 | Growth Rate (HEK-293T; 6 h, replicate number 1): 0.6 |
| Cc1ccc(C)c(OCCCC(C)(C)C(=O)O[C@@H]2O[C@H](C(=O)O)[C@@H](O)[C@H](O)[C@H]2O)c1 | 0.21 | – | 0.96 | -0.9 | -1 | 0.89 | – | 0.9 | – | 0.57 | – | 0.64 | 0.87 | 0.91 | -0.96 | 0.78 | 0.99 | 0.49 | 0.4 | 0.89 | Growth Rate (Fibroblast; 12 h, replicate number 2): 0.42; Growth Rate (Fibroblast; 18 h, replicate number 1): -0.29; Growth Rate (Fibroblast; 24 h, replicate number 1): 0.68; Growth Rate (Fibroblast; 24 h, replicate number 2): 0.89; Growth Rate (U2OS; 0 h, replicate number 1): 0.28 |
| NC1=NC(=O)/C(=C2\CCNC(=O)c3[nH]c4ccccc4c32)N1 | 0.39 | – | – | – | -1 | 0.74 | 0.65 | 0.78 | – | 0.81 | 0.25 | – | – | – | – | 0.63 | 0.7 | – | 0.43 | 0.45 | Growth Rate (Fibroblast; 18 h, replicate number 1): -0.07 |
| C=CC(=O)N1CCC[C@@H](n2nc(C(=O)Nc3ccc(CC(=O)N(C)C)c(C)c3C)c3c(N)ncnc32)C1 | 0.74 | -1 | -0.17 | – | -1 | – | – | – | – | -0.26 | -0.68 | – | – | – | -0.77 | – | – | – | – | – | Growth Rate (Fibroblast; 24 h, replicate number 1): 0.16 |
